From ChEMBL document CHEMBL3769303, “Discovery of membrane active benzimidazole quinolones-based topoisomerase inhibitors as potential DNA-binding antimicrobial agents” (Eur J Med Chem, 2016) come the findings set out here.

In brackets after ≈: the same amount, converted by molar mass.

Holding throughout (assay type): functional
In one test the test system is Bacillus spizizenii. Description: Antibacterial activity against Bacillus subtilis ATCC 6633 by micro broth dilution method. In general terms: In broth dilution the organism is exposed to a series of concentrations in liquid medium.
A short description of test [1]: Antifungal activity against Candida mycoderma ATCC 9888 after 24 hrs by micro broth dilution method. The note with it: Candida vini.
A further test relates to Micrococcus luteus. Description: Antibacterial activity against Micrococcus luteus ATCC 4698 by micro broth dilution method. The note with it: NCTC 2665.
The subject of test [2] is Staphylococcus aureus. Description: Antibacterial activity against Staphylococcus aureus ATCC 25923 by micro broth dilution method.
A further test concerns Saccharomyces cerevisiae. Description: Antifungal activity against Saccharomyces cerevisiae ATCC 9763 after 24 hrs by micro broth dilution method. The note with it: ATCC 9763, 24 h.
Another test has as its system Candida albicans. As to the kind of experiment: Antifungal activity against Candida albicans ATCC 10231 after 24 hrs by micro broth dilution method. The note with it: ATCC 10231, 24 h.
The subject of a further test is Shigella dysenteriae. As to the kind of experiment: Antibacterial activity against Shigella dysenteriae by micro broth dilution method.
Test [3] relates to Escherichia coli. As to the kind of experiment: Antibacterial activity against Escherichia coli DH52 by micro broth dilution method.
Test [4] relates to Escherichia coli. As to the kind of experiment: Antibacterial activity against Escherichia coli JM109 by micro broth dilution method.
The next test deals with Cyberlindnera jadinii. As to the kind of experiment: Antifungal activity against Candida utilis ATCC 9950 after 24 hrs by micro broth dilution method. To be noted: Williopsis jadinii, ATCC 9950, 24 h.
The test system of another test is Aspergillus flavus. As to the kind of experiment: Antifungal activity against Aspergillus flavus ATCC 204304 after 24 hrs by micro broth dilution method. To be noted: ATCC 204304, 24 h.
In a further test the test system is Salmonella enterica. Description: Antibacterial activity against Salmonella enterica ATCC 14028 by micro broth dilution method.
The nature of test [5]: Antibacterial activity against Bacillus proteus ATCC 13315 by micro broth dilution method.
Test [6] concerns Staphylococcus aureus. As to the kind of experiment: Antibacterial activity against methicillin-resistant Staphylococcus aureus N315 by micro broth dilution method.
Another test relates to Pseudomonas aeruginosa. Description: Antibacterial activity against Pseudomonas aeruginosa ATCC 27853 by micro broth dilution method.

Take `CCn1cc(C(=O)O)c(=O)c2cc(F)c(N3CCN(c4nc5ccccc5[nH]4)CC3)cc21`: the MIC (in general, the smallest concentration in the dilution series that meets the test's criterion for growth inhibition) was found to be 2 µg/mL (≈ 4.59 µM) in the test on Bacillus spizizenii; 4 µg/mL (≈ 9.19 µM) in the test with Micrococcus luteus; 2 µg/mL (≈ 4.59 µM) with Staphylococcus aureus [2]; 4 µg/mL (≈ 9.19 µM) in the test on Shigella dysenteriae; 2 µg/mL (≈ 4.59 µM) in the test with Escherichia coli [3]; 8 µg/mL (≈ 18.4 µM) with Escherichia coli [4]. In addition, the MIC with Salmonella enterica stood at 2 µg/mL (≈ 4.59 µM); in [5] it was 1 µg/mL (≈ 2.3 µM); in the test on Staphylococcus aureus [6], 4 µg/mL (≈ 9.19 µM); in the test with Pseudomonas aeruginosa it was 2 µg/mL (≈ 4.59 µM). In addition, the MIC80 (usually an inhibitory concentration at the 80% level, which refers to growth in some studies and to a panel of isolates in others) in test [1] worked out at 16 µg/mL (≈ 36.7 µM); in the test on Saccharomyces cerevisiae it was 32 µg/mL (≈ 73.5 µM); with Candida albicans, 8 µg/mL (≈ 18.4 µM); against Cyberlindnera jadinii, 8 µg/mL (≈ 18.4 µM); against Aspergillus flavus it was 16 µg/mL (≈ 36.7 µM).
In the case of `O=C(O)c1cn(C2CC2)c2cc(N3CCN(Cc4nc5ccccc5n4Cc4cccc(Cl)c4)CC3)c(F)cc2c1=O`, the minimum inhibitory concentration (MIC) worked out at 4 µg/mL (≈ 6.83 µM) with Bacillus spizizenii; 0.125 µg/mL (≈ 0.213 µM) against Micrococcus luteus; 8 µg/mL (≈ 13.7 µM) against Staphylococcus aureus [2]; 4 µg/mL (≈ 6.83 µM) in the test with Shigella dysenteriae; 0.5 µg/mL (≈ 0.853 µM) in the test with Escherichia coli [3]; 4 µg/mL (≈ 6.83 µM) in the test with Escherichia coli [4]. Besides, the MIC against Salmonella enterica stood at 0.25 µg/mL (≈ 0.427 µM); in test [5], 0.5 µg/mL (≈ 0.853 µM); with Staphylococcus aureus [6], 0.5 µg/mL (≈ 0.853 µM); against Pseudomonas aeruginosa it was 0.125 µg/mL (≈ 0.213 µM). The MIC80 in test [1] was 0.5 µg/mL (≈ 0.853 µM); against Saccharomyces cerevisiae, 0.5 µg/mL (≈ 0.853 µM); in the test on Candida albicans, 0.125 µg/mL (≈ 0.213 µM); in the test with Cyberlindnera jadinii, 0.25 µg/mL (≈ 0.427 µM); against Aspergillus flavus, 0.5 µg/mL (≈ 0.853 µM).
For `O=C(O)c1cn(C2CC2)c2cc(N3CCN(Cc4nc5ccc([N+](=O)[O-])cc5[nH]4)CC3)c(F)cc2c1=O`, the minimal inhibitory concentration (MIC) turned out to be 8 µg/mL (≈ 15.8 µM) in the test with Bacillus spizizenii; 8 µg/mL (≈ 15.8 µM) against Micrococcus luteus; 16 µg/mL (≈ 31.6 µM) against Staphylococcus aureus [2]; 4 µg/mL (≈ 7.9 µM) against Shigella dysenteriae; 4 µg/mL (≈ 7.9 µM) against Escherichia coli [3]; 8 µg/mL (≈ 15.8 µM) in the test on Escherichia coli [4]. The minimal inhibitory concentration (MIC) stood at 4 µg/mL (≈ 7.9 µM) with Salmonella enterica, 4 µg/mL (≈ 7.9 µM) in test [5], 2 µg/mL (≈ 3.95 µM) in the test on Staphylococcus aureus [6] and 0.5 µg/mL (≈ 0.987 µM) in the test with Pseudomonas aeruginosa. Further, the MIC80 is 8 µg/mL (≈ 15.8 µM) in [1]; 4 µg/mL (≈ 7.9 µM) against Saccharomyces cerevisiae; 2 µg/mL (≈ 3.95 µM) with Candida albicans; 4 µg/mL (≈ 7.9 µM) against Cyberlindnera jadinii; 4 µg/mL (≈ 7.9 µM) in the test with Aspergillus flavus.
As to `CCCCCn1c(CN2CCN(c3cc4c(cc3F)c(=O)c(C(=O)O)cn4C3CC3)CC2)nc2ccccc21`, the MIC came out at 4 µg/mL (≈ 7.52 µM) with Bacillus spizizenii; 4 µg/mL (≈ 7.52 µM) against Micrococcus luteus; 128 µg/mL (≈ 241 µM) in the test with Staphylococcus aureus [2]; 8 µg/mL (≈ 15 µM) in the test on Shigella dysenteriae; 1 µg/mL (≈ 1.88 µM) with Escherichia coli [3]; 128 µg/mL (≈ 241 µM) in the test with Escherichia coli [4]. Further, the MIC came out at 4 µg/mL (≈ 7.52 µM) against Salmonella enterica, 2 µg/mL (≈ 3.76 µM) in [5], 64 µg/mL (≈ 120 µM) against Staphylococcus aureus [6] and 2 µg/mL (≈ 3.76 µM) against Pseudomonas aeruginosa. In addition, the MIC80 in test [1] came to 2 µg/mL (≈ 3.76 µM); against Saccharomyces cerevisiae, 256 µg/mL (≈ 482 µM); in the test with Candida albicans, 8 µg/mL (≈ 15 µM); against Cyberlindnera jadinii, 8 µg/mL (≈ 15 µM); against Aspergillus flavus it was 256 µg/mL (≈ 482 µM).
On to `CCn1cc(C(=O)O)c(=O)c2cc(F)c(N3CCN(Cc4nc5ccccc5n4Cc4cccc(F)c4)CC3)cc21`, for which the MIC against Bacillus spizizenii was 128 µg/mL (≈ 230 µM); against Micrococcus luteus, 64 µg/mL (≈ 115 µM); with Staphylococcus aureus [2], 128 µg/mL (≈ 230 µM); in the test with Shigella dysenteriae it was 1 µg/mL (≈ 1.79 µM); in the test with Escherichia coli [3], 128 µg/mL (≈ 230 µM); in the test with Escherichia coli [4], 128 µg/mL (≈ 230 µM). Besides, the minimum inhibitory concentration (MIC) against Salmonella enterica stood at 8 µg/mL (≈ 14.3 µM); in [5], 4 µg/mL (≈ 7.17 µM); in the test on Staphylococcus aureus [6] it was 32 µg/mL (≈ 57.4 µM); against Pseudomonas aeruginosa, 8 µg/mL (≈ 14.3 µM). Also, the MIC80 came out at 64 µg/mL (≈ 115 µM) in test [1]; 2 µg/mL (≈ 3.59 µM) against Saccharomyces cerevisiae; 64 µg/mL (≈ 115 µM) in the test on Candida albicans; 32 µg/mL (≈ 57.4 µM) with Cyberlindnera jadinii; 2 µg/mL (≈ 3.59 µM) against Aspergillus flavus.
Consider `CCn1cc(C(=O)O)c(=O)c2cc(F)c(N3CCN(Cc4nc5ccc(Cl)cc5[nH]4)CC3)cc21`, for which the minimum inhibitory concentration (MIC) is 16 µg/mL (≈ 33.1 µM) in the test on Bacillus spizizenii; 1 µg/mL (≈ 2.07 µM) against Micrococcus luteus; 2 µg/mL (≈ 4.13 µM) in the test with Staphylococcus aureus [2]; 1 µg/mL (≈ 2.07 µM) against Shigella dysenteriae; 0.5 µg/mL (≈ 1.03 µM) in the test with Escherichia coli [3]; 2 µg/mL (≈ 4.13 µM) in the test with Escherichia coli [4]. Besides, the minimal inhibitory concentration (MIC) against Salmonella enterica is 0.5 µg/mL (≈ 1.03 µM); in [5], 0.5 µg/mL (≈ 1.03 µM); with Staphylococcus aureus [6] it was 1 µg/mL (≈ 2.07 µM); against Pseudomonas aeruginosa, 1 µg/mL (≈ 2.07 µM). Further, the MIC80 in test [1] was 8 µg/mL (≈ 16.5 µM); with Saccharomyces cerevisiae, 8 µg/mL (≈ 16.5 µM); against Candida albicans, 32 µg/mL (≈ 66.1 µM); in the test with Cyberlindnera jadinii, 8 µg/mL (≈ 16.5 µM); against Aspergillus flavus, 2 µg/mL (≈ 4.13 µM).
As to `CCCCCCn1c(CN2CCN(c3cc4c(cc3F)c(=O)c(C(=O)O)cn4C3CC3)CC2)nc2ccccc21`, the MIC came out at 16 µg/mL (≈ 29.3 µM) in the test on Bacillus spizizenii; 32 µg/mL (≈ 58.6 µM) with Micrococcus luteus; 256 µg/mL (≈ 469 µM) in the test on Staphylococcus aureus [2]; 64 µg/mL (≈ 117 µM) against Shigella dysenteriae; 16 µg/mL (≈ 29.3 µM) against Escherichia coli [3]; 64 µg/mL (≈ 117 µM) with Escherichia coli [4]. Besides, the MIC with Salmonella enterica came out at 16 µg/mL (≈ 29.3 µM); in test [5], 16 µg/mL (≈ 29.3 µM); against Staphylococcus aureus [6] it was 128 µg/mL (≈ 235 µM); against Pseudomonas aeruginosa it was 16 µg/mL (≈ 29.3 µM). The MIC80 turned out to be 8 µg/mL (≈ 14.7 µM) in [1]; 128 µg/mL (≈ 235 µM) with Saccharomyces cerevisiae; 16 µg/mL (≈ 29.3 µM) against Candida albicans; 32 µg/mL (≈ 58.6 µM) in the test with Cyberlindnera jadinii; 128 µg/mL (≈ 235 µM) in the test on Aspergillus flavus.
